What is called IC50 is the point on the concentration scale where inhibition reaches its midpoint.

Chain of purified recombinant human GAC (GLS1) (O94925 other isoform, or with tags, fused parts or gaps): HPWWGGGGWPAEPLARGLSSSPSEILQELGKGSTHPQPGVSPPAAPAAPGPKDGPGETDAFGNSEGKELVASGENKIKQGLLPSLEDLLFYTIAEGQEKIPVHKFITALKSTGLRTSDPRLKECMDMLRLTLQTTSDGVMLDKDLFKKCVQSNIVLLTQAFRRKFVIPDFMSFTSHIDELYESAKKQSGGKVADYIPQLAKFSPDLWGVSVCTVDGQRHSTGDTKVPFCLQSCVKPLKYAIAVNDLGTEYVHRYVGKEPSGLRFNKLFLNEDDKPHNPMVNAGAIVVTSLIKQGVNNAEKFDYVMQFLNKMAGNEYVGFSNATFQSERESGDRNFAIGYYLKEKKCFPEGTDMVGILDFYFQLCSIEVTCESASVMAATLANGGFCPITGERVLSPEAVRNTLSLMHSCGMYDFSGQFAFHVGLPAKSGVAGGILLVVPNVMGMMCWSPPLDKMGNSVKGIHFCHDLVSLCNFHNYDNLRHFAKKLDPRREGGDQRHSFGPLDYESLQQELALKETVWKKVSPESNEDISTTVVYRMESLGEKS

The test concerns the target purified recombinant human GAC (GLS1) (Homo sapiens (Human), UniProt O94925). Kind of test: GLS1 Enzymatic Activity Assay (dual-coupled enzymatic assay, resorufin/Amplex UltraRed readout).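 Further: glutamate from GAC coupled via glutamate oxidase and peroxidase to resorufin, read as fluorescence (ex 530, em 590 nm) kinetically or at 20 min, four-parameter logistic IC50 fit.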 The class given is biochemical.
With `CC(C)(C)OC(=O)N1CCC(Cn2cc(CCCCn3cc(C(=O)NCc4cccc(OC(F)(F)F)c4)nn3)nn2)CC1` [Example 8, Tert-butyl 4-((4-(4-(4-(3-(trifluoromethoxy)benzylcarbamoyl)-1H-1,2,3-triazol-1-yl)butyl)-1H-1,2,3-triazol-1-yl)methyl)piperidine-1-carboxylate], the IC50 was in the range of 100 to 500 nM.
With `CS(=O)(=O)NCc1cn(CCCCn2cc(C(=O)NCc3cccc(OC(F)(F)F)c3)nn2)nn1` [Example 9, 1-(4-(4-(Methylsulfonamidomethyl)-1H-1,2,3-triazol-1-yl)butyl)-N-(3-(trifluoromethoxy)benzyl)-1H-1,2,3-triazole-4-carboxamide], the IC50 is 500 to 5000 nM.
To `CC(C)NC(=O)c1cn(CCCCc2nnc(NC(=O)Cc3cccc(OC(F)(F)F)c3)s2)nn1` [Example 10, N-(propan-2-yl)-1-[4-(5-{2-[3-(trifluoromethoxy)phenyl]acetamido}-1,3,4-thiadiazol-2-yl)butyl]-1H-1,2,3-triazole-4-carboxamide] belongs 100 to 500 nM; to `O=C(Cc1ccccc1)Nc1nnc(CCCCn2cc(C(=O)NCCN3CCC(O)CC3)nn2)s1` [Example 14, N-[2-(4-hydroxypiperidin-1-yl)ethyl]-1-{4-[5-(2-phenylacetamido)-1,3,4-thiadiazol-2-yl]butyl}-1H-1,2,3-triazole-4-carboxamide], 500 to 5000 nM; to `CC(C)NC(=O)c1nnc(CCCCn2cc(C(=O)NCc3ccccc3)nn2)s1` [Example 38, 5-{4-[4-(benzylcarbamoyl)-1H-1,2,3-triazol-1-yl]butyl}-N-(propan-2-yl)-1,3,4-thiadiazole-2-carboxamide], 500 to 5000 nM.
To `O=C(NCc1ccccc1)c1cn(CCCCc2nnc(C(=O)NCc3ccccn3)s2)nn1` [Example 40, 5-{4-[4-(benzylcarbamoyl)-1H-1,2,3-triazol-1-yl]butyl}-N-(pyridin-2-ylmethyl)-1,3,4-thiadiazole-2-carboxamide] belongs 100 to 500 nM; to `CC(C)(C)OC(=O)N1CCC(Cn2cc(CCCCn3cc(C(=O)NCc4cccc(OC(F)(F)F)c4)nn3)nn2)CC1` [Example 53], 500 to 5000 nM; to `CC(C)CCNCc1cn(CCCCn2cc(C(=O)NCc3cccc(OC(F)(F)F)c3)nn2)nn1` [Example 57, 1-(4-(4-((isopentylamino)methyl)-1H-1,2,3-triazol-1-yl)butyl)-N-(3-(trifluoromethoxy)benzyl)-1H-1,2,3-triazole-4-carboxamide], 500 to 5000 nM.
For `CCC(=O)NCc1cn(CCCCn2cc(C(=O)NCc3cccc(OC(F)(F)F)c3)nn2)nn1` [Example 58, 1-(4-(4-(propionamidomethyl)-1H-1,2,3-triazol-1-yl)butyl)-N-(3-(trifluoromethoxy)benzyl)-1H-1,2,3-triazole-4-carboxamide], the half-inhibitory concentration (IC50) lay within 500 to 5000 nM.
The value for `O=C(NCc1ccccn1)c1cn(CCCCc2nnc(C(=O)NCc3ccccn3)s2)nn1` [Example 66, N-(pyridin-2-ylmethyl)-5-(4-{4-[(pyridin-2-ylmethyl)carbamoyl)-1H-1,2,3-triazol-1-yl}butyl)-1,3,4-thiadiazole-2-carboxamide] was 500 to 5000 nM.
As to `Cc1ccc(CNC(=O)c2nnc(CCCCn3cc(C(=O)NCc4ccccn4)nn3)s2)cn1` [Example 67, N-[(6-methylpyridin-3-yl)methyl]-5(4-{4-[(pyridin-2-ylmethyl)carbamoyl]-1H-1,2,3-triazol-1-yl}butyl)-1,3,4-thiadiazole-2-carboxamide], the IC50 was in the range of 100 to 500 nM.
Consider `O=C(NCc1ccccn1)c1cn(CCCCc2nnc(C(=O)NCC3CC3)s2)nn1` [Example 68, N-(cyclopropylmethyl)-5-(4-{4-[(pyridin-2-ylmethyl)carbamoyl]-1H-1,2,3-triazol-1-yl}butyl)-1,3,4-thiadiazole-2-carboxamide], for which the IC50 lay in the range of 500 to 5000 nM.
As to `O=C(NCC1CC1)c1cn(CCCCc2nnc(C(=O)NCc3ccccn3)s2)nn1` [Example 69, 5-(4-{4-[(cyclopropylmethyl)carbamoyl]-1H-1,2,3-triazol-1-yl}butyl)-N-(pyridin-2-ylmethyl)-1,3,4-thiadiazole-2-carboxamide], the half-maximal inhibitory concentration (IC50) was in the range of 500 to 5000 nM.

The values above are taken from patent US10344025B2, “GLS1 inhibitors for treating disease” (Board of Regents, The University of Texas System, priority 2014, dated 2019).
